The results in this text go back to ChEMBL document CHEMBL5465560, “Selectivity Literature for EUbOPEN Chemogenomic Library” (2024).

The target of assay [1] is Serine/threonine-protein kinase 32C (Homo sapiens) (UniProt Q86UX6). To be noted: at 10 µM.
Assay [2] concerns the target Platelet-derived growth factor receptor beta (Homo sapiens, UniProt P09619). The assay is described as follows: Selectivity interaction (Kinase panel (Invitrogen)) EUB0000639a PDGFRB. To be noted: at 200 nM.
In assay [3] the target is Ribosomal protein S6 kinase alpha-3 (Homo sapiens, UniProt P51812). The assay is described as follows: Selectivity interaction (Kinase panel (Invitrogen)) EUB0000639a RPS6KA3. The note with it: at 200 nM.
Ribosomal protein S6 kinase alpha-3, sequence (P51812 whole entry): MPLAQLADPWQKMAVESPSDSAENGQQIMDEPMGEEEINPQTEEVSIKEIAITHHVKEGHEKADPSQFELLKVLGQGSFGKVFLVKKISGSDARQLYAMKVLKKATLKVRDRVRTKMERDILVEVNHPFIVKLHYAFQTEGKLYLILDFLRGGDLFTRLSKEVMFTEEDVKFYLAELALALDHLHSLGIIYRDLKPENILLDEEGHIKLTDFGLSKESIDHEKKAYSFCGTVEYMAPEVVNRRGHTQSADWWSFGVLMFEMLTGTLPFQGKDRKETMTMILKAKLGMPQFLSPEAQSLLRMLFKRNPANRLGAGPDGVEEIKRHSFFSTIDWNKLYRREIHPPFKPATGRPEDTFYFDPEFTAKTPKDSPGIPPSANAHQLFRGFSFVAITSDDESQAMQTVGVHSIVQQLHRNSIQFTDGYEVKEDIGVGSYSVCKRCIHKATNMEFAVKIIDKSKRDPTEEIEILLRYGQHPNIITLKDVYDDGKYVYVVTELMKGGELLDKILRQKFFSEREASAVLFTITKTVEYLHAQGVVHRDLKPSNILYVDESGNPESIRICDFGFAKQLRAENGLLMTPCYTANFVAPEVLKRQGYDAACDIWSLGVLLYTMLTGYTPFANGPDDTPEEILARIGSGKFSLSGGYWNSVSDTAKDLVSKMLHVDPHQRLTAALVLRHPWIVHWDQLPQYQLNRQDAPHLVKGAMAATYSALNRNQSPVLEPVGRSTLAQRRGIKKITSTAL
For assay [4], the target named is Serine/threonine-protein kinase MARK2 (Homo sapiens) (UniProt Q7KZI7). The assay is described as follows: Selectivity interaction (ActivX KiNativ screen (kinase selectivity in THP-1 cell lysates)) EUB0000639a MARK2. Format: subcellular. To be noted: lysate, at 0.04 µM.
Serine/threonine-protein kinase MARK2 (Homo sapiens), sequence (Q7KZI7 whole entry): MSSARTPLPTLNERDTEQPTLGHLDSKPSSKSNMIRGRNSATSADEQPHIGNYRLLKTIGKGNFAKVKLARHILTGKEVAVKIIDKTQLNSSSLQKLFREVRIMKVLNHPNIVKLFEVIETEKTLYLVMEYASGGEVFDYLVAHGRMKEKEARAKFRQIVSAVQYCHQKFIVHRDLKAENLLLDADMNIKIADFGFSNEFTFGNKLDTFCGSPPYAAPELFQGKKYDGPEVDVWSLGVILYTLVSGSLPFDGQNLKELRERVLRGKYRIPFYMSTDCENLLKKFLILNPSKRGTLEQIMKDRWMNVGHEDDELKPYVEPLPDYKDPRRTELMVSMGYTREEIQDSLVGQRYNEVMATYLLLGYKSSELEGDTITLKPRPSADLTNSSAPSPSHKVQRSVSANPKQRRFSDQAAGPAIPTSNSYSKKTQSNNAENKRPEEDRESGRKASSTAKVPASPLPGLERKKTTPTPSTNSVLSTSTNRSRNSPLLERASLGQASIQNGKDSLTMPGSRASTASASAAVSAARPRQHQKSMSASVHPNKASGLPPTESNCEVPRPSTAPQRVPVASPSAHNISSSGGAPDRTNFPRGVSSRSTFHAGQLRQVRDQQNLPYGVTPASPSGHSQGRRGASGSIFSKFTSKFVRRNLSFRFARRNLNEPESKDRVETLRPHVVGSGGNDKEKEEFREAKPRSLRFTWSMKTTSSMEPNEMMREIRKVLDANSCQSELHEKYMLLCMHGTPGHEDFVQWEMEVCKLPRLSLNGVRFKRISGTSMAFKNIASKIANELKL
In assay [5] the target is T1, Calcium/calmodulin-dependent protein kinase type IV (Homo sapiens) (UniProt Q16566).
T1 sequence (whole entry): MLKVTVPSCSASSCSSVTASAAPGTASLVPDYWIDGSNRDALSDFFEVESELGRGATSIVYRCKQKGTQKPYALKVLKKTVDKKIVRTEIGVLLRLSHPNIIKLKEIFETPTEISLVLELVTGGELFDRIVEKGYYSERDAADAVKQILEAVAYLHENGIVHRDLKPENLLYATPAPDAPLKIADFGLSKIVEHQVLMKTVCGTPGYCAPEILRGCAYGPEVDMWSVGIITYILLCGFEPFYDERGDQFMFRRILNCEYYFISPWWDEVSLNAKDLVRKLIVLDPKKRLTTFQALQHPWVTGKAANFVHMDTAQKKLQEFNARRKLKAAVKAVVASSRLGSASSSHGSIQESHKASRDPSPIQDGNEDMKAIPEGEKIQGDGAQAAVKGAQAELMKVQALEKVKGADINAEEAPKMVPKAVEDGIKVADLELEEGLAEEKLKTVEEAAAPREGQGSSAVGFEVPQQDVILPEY
The assay is described as follows: Selectivity interaction (Kinase panel (Invitrogen)) EUB0000639a CAMK4. To be noted: at 200 nM.

The target in assay [6] is Serine/threonine-protein kinase PLK1 (Homo sapiens, UniProt P53350). The assay is described as follows: Selectivity interaction (Kinase panel (literature)) EUB0001199aCl PLK1. To be noted: at 1 µM.
Serine/threonine-protein kinase PLK1, sequence (P53350 whole entry): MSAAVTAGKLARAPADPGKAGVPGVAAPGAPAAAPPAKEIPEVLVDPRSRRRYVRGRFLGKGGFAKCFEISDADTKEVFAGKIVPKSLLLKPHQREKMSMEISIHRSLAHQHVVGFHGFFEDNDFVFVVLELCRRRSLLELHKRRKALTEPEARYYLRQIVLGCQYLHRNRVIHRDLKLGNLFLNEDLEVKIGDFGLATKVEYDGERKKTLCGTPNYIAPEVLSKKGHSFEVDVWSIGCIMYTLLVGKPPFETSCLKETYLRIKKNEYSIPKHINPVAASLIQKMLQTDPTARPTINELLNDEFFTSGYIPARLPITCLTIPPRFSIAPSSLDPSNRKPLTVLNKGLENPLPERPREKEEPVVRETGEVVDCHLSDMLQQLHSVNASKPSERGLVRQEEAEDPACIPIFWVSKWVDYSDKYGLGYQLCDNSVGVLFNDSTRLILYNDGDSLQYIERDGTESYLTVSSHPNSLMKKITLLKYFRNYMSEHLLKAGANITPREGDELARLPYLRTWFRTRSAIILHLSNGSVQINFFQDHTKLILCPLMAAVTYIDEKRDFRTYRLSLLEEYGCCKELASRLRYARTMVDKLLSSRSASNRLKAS
Assay [7] has as its target Mitogen-activated protein kinase 11 (Homo sapiens) (UniProt Q15759). The assay is described as follows: Selectivity interaction (ProQinase) EUB0000171b MAPK11.
Assay [8] concerns the target T2, Serine/threonine-protein kinase Nek11 (Homo sapiens) (UniProt Q8NG66).
T2 sequence (whole entry): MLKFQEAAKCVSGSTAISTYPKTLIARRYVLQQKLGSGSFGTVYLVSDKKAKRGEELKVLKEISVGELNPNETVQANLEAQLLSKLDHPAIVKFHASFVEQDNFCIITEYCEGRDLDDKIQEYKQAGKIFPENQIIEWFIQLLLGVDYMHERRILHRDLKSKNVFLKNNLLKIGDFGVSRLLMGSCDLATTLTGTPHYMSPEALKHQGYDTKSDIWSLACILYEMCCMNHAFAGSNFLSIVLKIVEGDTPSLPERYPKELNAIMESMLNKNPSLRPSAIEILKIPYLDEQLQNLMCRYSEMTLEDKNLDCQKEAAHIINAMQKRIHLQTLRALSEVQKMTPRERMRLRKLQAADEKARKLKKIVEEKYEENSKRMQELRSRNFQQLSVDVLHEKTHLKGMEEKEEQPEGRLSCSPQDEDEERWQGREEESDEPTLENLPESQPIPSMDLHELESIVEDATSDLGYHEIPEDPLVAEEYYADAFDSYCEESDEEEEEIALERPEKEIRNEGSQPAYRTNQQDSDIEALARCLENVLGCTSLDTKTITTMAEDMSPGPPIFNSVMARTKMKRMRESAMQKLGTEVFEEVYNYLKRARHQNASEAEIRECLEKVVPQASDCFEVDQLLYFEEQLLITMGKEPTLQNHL
The assay is described as follows: Selectivity interaction (KinomeScan (DiscoverX)) EUB0001049a NEK11. To be noted: at 1 µM.

The target in assay [9] is T3, Tyrosine-protein kinase ITK/TSK (Homo sapiens) (UniProt Q08881).
T3 sequence (whole entry): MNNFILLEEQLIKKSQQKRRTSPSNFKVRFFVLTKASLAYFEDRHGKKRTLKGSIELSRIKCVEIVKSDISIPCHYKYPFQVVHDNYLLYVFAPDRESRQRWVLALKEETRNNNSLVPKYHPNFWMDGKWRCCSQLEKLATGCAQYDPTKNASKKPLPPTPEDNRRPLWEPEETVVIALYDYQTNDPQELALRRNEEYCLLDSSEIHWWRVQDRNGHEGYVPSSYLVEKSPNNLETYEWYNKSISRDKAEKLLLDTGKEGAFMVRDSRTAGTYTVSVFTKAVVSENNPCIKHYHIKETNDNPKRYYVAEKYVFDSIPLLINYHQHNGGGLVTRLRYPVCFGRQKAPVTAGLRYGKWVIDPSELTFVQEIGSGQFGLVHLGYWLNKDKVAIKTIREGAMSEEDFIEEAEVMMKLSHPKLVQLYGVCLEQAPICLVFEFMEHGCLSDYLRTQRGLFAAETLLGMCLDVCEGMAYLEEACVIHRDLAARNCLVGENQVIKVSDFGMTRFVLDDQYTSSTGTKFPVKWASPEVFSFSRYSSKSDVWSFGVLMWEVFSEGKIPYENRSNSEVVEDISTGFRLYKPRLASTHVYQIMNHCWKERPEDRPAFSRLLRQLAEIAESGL
The assay is described as follows: Selectivity interaction (KinomeScan (DiscoverX)) EUB0000092b ITK. To be noted: at 10 µM.

Assay [10] deals with Calcium/calmodulin-dependent protein kinase type II subunit gamma (Homo sapiens) (UniProt Q13555). In words: Selectivity interaction (Kinase panel (KiNativ target engagement assay in Jurkat cells)) EUB0001635a CAMK2G. Format: cell-based. To be noted: Selectivity number of off-targets 0.0, Selectivity number of targets 233.0, Source Knowledge https://www.sciencedirect.com/science/article/pii/S2451945619300674?via%3Dihub, at 1 µM.
Calcium/calmodulin-dependent protein kinase type II subunit gamma (Homo sapiens), sequence (Q13555 whole entry): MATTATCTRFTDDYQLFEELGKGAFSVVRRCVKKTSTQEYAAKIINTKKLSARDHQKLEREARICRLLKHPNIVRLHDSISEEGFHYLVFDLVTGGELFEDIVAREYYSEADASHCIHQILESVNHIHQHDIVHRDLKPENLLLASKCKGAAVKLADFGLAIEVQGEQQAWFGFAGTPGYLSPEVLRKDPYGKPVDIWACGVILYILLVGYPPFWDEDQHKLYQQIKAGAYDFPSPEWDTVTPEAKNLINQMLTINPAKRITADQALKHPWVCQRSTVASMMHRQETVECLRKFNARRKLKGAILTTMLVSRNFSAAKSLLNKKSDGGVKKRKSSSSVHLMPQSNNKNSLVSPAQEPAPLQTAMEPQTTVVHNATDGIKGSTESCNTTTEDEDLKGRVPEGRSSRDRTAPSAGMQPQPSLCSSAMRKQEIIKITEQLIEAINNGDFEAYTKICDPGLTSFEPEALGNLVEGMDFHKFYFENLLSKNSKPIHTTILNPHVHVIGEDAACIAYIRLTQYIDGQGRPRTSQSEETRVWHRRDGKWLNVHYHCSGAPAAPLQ

Molecules are shown by their SMILES.

Mitogen-activated protein kinase 11 (Homo sapiens), sequence (Q15759 whole entry): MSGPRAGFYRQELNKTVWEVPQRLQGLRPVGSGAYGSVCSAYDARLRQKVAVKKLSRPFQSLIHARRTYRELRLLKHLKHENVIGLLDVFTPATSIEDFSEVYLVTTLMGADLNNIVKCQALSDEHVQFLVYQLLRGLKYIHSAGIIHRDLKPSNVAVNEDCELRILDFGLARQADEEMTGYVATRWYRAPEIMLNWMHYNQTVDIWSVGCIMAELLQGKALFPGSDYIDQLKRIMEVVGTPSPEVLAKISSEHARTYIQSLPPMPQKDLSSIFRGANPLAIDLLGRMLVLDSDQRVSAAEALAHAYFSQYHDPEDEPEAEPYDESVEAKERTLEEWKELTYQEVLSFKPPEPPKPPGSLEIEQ
Platelet-derived growth factor receptor beta, sequence (P09619 whole entry): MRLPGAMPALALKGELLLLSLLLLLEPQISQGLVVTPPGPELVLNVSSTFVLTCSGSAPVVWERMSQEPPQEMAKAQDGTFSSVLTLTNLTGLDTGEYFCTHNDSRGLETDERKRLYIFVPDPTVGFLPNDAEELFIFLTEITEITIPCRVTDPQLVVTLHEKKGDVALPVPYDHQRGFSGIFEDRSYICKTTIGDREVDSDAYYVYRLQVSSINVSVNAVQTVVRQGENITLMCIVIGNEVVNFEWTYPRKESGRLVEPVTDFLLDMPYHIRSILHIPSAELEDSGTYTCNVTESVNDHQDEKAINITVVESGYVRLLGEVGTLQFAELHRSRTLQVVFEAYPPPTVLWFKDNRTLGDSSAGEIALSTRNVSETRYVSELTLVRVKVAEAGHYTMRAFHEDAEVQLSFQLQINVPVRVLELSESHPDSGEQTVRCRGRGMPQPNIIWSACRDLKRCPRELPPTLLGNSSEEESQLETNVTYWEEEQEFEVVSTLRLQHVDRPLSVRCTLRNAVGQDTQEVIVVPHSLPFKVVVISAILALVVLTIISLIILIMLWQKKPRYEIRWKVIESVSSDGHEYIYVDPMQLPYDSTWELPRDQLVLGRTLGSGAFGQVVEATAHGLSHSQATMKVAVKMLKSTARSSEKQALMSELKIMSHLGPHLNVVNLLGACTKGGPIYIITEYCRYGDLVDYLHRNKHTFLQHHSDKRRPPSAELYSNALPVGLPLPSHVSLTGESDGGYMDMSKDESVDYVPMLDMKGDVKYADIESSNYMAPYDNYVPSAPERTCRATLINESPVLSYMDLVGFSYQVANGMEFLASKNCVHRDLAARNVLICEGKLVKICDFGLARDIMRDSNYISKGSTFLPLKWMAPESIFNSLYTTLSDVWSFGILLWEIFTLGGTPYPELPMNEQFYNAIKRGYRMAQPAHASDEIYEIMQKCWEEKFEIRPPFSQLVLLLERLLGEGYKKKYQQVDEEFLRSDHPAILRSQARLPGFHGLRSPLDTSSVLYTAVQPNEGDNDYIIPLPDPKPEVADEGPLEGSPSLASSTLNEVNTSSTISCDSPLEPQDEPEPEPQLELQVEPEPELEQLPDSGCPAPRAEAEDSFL
Serine/threonine-protein kinase 32C (Homo sapiens), sequence (Q86UX6 whole entry): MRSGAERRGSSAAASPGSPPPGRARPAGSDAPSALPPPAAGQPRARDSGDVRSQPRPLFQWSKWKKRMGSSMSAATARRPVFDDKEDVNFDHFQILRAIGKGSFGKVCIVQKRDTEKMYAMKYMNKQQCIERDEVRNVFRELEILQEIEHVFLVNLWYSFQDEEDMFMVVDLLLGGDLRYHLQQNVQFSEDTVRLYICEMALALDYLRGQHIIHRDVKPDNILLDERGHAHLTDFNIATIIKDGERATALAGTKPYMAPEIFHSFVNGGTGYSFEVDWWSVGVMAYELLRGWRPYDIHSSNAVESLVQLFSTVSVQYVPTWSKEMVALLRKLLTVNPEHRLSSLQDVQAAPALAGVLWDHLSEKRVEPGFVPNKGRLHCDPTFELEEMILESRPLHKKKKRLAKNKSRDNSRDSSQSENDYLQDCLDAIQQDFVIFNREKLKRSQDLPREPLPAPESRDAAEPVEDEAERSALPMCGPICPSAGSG

`CCN(CC)CCCCNc1ncc2cc(-c3cc(OC)cc(OC)c3)c(NC(=O)NC(C)(C)C)nc2n1`: the % of control in [1] was 100%.

In the case of `CC[C@@H]1[C@H](F)C(=O)N[C@@H]1COc1nccc2cc(C(N)=O)c(OC)cc12` [ZIMLOVISERTIB], the % of inhibition in assay [2] is -2.22%; in assay [3] it was -6.31%; in assay [4], 8.3%; in [5], -8.2%.

Take `CN1Cc2nccc(-c3cn(C)nc3-c3ccc(F)cc3)c2C1=O`: the % of inhibition in [6] was -3%.

Consider `C=CC(=O)Nc1cccc(C(=O)Nc2ccc(Nc3cc(-c4[nH]c(SC)nc4C)ccn3)cc2)c1`, for which the % of control in assay [7] (at 1 µM) was 93%; in [7] (at 5 µM), 75%.

In [8], `COc1cc(Nc2nc(C)cc(-c3cnn4nc(OC)ccc34)n2)cc(C(F)(F)F)c1` had a % of control of 99%.

In assay [9], `CCC(=O)N1CCN(c2ccc(-n3c(=O)ccc4cnc5ccc(-c6cnc7ccccc7c6)cc5c43)cc2C(F)(F)F)CC1` had a % of control of 100%.

For `C=CC(=O)Nc1ccc(C(=O)Nc2[nH]nc3c2CN(C(=O)N[C@H](CN(C)C)c2ccccc2)C3(C)C)cc1`, the % of engagement in assay [10] turned out to be 35.8%.
